Test results: ChEMBL document CHEMBL4138052, “Synthesis, characterization, solubilization, cytotoxicity and antioxidant activity of aminomethylated dihydroquercetin” (Medchemcomm, 2017)
Converted amounts (≈) assume the structure as drawn. The source made the active and inactive calls. No cut-off for these calls is given here.

Legend:
[1] = Antioxidant activity assessed as ABTS radical scavenging activity incubated for 6 mins by spectrophotometry; type: functional
[2] = Thermal stability of the compound assessed as drug degradation by measuring compound weight loss at 30 to 100 degC; type: physicochemical; conditions: read-out: Drug degradation
[3] = tested on: HeLa; assay: Cytotoxicity in human HeLa cells assessed as reduction in cell survival incubated for 48 hrs by MTT assay; type: functional, cell-based
[4] = Antioxidant activity assessed as DPPH radical scavenging activity at 0.03 to 0.06 mM incubated for 30 mins; type: functional
[5] = tested on: HEK293; assay: Stimulation of cell growth in HEK293 cells assessed as increase in cell survival at 2 to 360 uM incubated for 48 hrs by MTT assay; type: functional, cell-based; conditions: Homo sapiens
[6] = Reducing power of the compound assessed as reducing Fe3+ power at 0.15 to 1.2 mM using potassium ferricyanide in pH 6.6 KH2PO4-K2HPO4 buffer by UV spectrophotometry; type: physicochemical; conditions: pH 6.6, 1200 µM
[7] = Solubility in PBS using micronized compound measured at 60 mins; type: physicochemical
[8] = Antioxidant activity assessed as ABTS radical scavenging activity at 0.1 mM incubated for 6 mins by spectrophotometry; type: functional
[9] = Safety index, ratio of EC50 for aristolochic acid to EC50 for test compound for cytotoxicity in HEK293 cells assessed as reduction in cell survival incubated for 48 hrs by MTT assay; type: cell-based; conditions: human, read-out: Ratio EC50
[10] = tested on: HEK293; assay: Stimulation of cell growth in HEK293 cells assessed as cell growth rate at 200 uM incubated for 48 hrs by MTT assay; type: functional; conditions: Homo sapiens, HEK293, 48 h; read-out: Activity
[11] = Antioxidant activity assessed as DPPH radical scavenging activity at 0.09 mM incubated for 30 mins; type: functional
[12] = tested on: HEK293; assay: Cytotoxicity in HEK293 cells assessed as reduction in cell survival incubated for 48 hrs by MTT assay; type: cell-based; conditions: Homo sapiens, HEK293, 48 h
[13] = Thermal stability of the compound assessed as drug degradation by measuring compound weight loss at 247 to 600 degC; type: physicochemical; conditions: read-out: Drug degradation
[14] = Antioxidant activity assessed as DPPH radical scavenging activity using micronized compound; type: functional
[15] = Solubility in water at pH 5.7 under nitrogen and sheltered from light condition incubated for 1 hr; type: physicochemical
[16] = Dissolution of the compound at 0.12 mg measured at 38 mins by UV spectrophotometry; type: physicochemical
[17] = Ratio of solubility of DHQ to solubility of test compound in water at pH 5.7 under nitrogen and sheltered from light condition incubated for 1 hr; type: physicochemical; conditions: buffer, pH 5.7, 1 h
[18] = Thermal stability of the compound assessed as drug degradation by measuring compound weight loss at 217 to 600 degC; type: physicochemical; conditions: read-out: Drug degradation
[19] = Dissolution of the compound at 0.12 mg measured at 360 mins by UV spectrophotometry; type: physicochemical; conditions: 6 h
[20] = tested on: HEK293; assay: Potency index, ratio of cell growth stimulation activity of DHQ to cell growth stimulation activity of test compound for stimulation of cell growth in HEK293 cells assessed as cell growth rate at 200 uM incubated for 48 hrs by MTT assay; type: functional, Homo sapiens

Structure (SMILES) | IC50 [1] [µM] | Activity [3] | EC50 [3] [µM] | Activity [4] | Activity [5] | Activity [6] | solubility at 1 h [7] [µg/mL] | Activity [8] [%] | selectivity ratio at 48 h [9] | growth at 200 µM [10] [%] | Activity [11] [%] | EC50 [12] [µM] | IC50 [14] [µg/mL] | solubility at 1 h [15] [µg/mL] | Activity [16] [%] | other results
O=C1c2c(O)cc(O)cc2O[C@H](c2ccc(O)c(O)c2)[C@H]1O [(+)-TAXIFOLIN] | 48 | Dose-dependent effect | 125 | Active | Active | Dose-dependent effect | 20 (≈ 65.7 µM) | 84.9 | 5.6 | 22.6 | 88.7 | 671 | 500 (≈ 1640 µM) | 1200 (≈ 3940 µM) | 13.8 | degraded [2]: 10.1%; degraded [13]: 43.4%
O=C1O[C@H]([C@@H](O)CO)C(O)=C1O [ASCORBIC ACID] | 42 | – | – | – | – | Dose-dependent effect | – | – | – | – | – | – | – | – | – | –
O=C(O)C1CCCN1Cc1c(O)c(CN2CCCC2C(=O)O)c2c(c1O)C(=O)[C@@H](O)[C@H](c1ccc(O)c(O)c1)O2 (some centres undefined) | 42 | Dose-dependent effect | 138 | Active | Active | Dose-dependent effect | 210 (≈ 376 µM) | 98.3 | 7 | 54.5 | 85.7 | 820 | 22 (≈ 39.4 µM) | 19500 (≈ 35000 µM) | 87.1 | Ratio [17]: 16; degraded [18]: 64.8%; Activity [19]: 83.78%; Ratio [20]: 2.5
COc1cccc2c1cc([N+](=O)[O-])c1c(C(=O)O)cc3c(c12)OCO3 [ARISTOLOCHIC ACID] | – | – | – | – | – | – | – | – | – | – | – | 118 | – | – | – | –
